Test results reported in US10544146B2, “Bicyclic compounds and their use as antibacterial agents and β-lactamase inhibitors” (priority 2011, dated 2020).

Experiments:
Test in all cases: MIC, antibacterial and synergistic activity
Format in all cases: cell-based
A. baumanii JMI 2659 = details: Acinetobacter baumannii, JMI2659; A. baumanii JMI 2659, Ges-14 (Cpase); substance alone
Protocol: (§1) In the Tables 10-12, compounds of the present invention were tested in combination with various antibiotics against metallo β-lactamase producing bacteria.

E. cloacae JMI 36 = details: Enterobacter cloacae, JMI36; E. cloacae JMI 36, P99; substance alone
Protocol: as §1

E. coli ATCC 25922 = details: Escherichia coli, ATCC25922, E. coli ATCC 25922, enzyme Wt; substance alone
Protocol: as §1

E. coli JMI 10767 = details: Escherichia coli, JMI10767; E. coli JMI 10767, Wt; substance alone
Protocol: as §1

E. coli JMI 2671 = details: Escherichia coli, JMI2671, E. coli JMI 2671, VIM-19 (Cpase); substance alone
Protocol: as §1

E. coli JMI 2692 = details: Escherichia coli, JMI2692; E. coli JMI 2692, NDM-1, TEM-1, CTX-M-15; substance alone
Protocol: as §1

K. pneumo JMI 2693 = details: K. pneumo JMI 2693, NDM-1 (Cpase); substance alone
Protocol: as §1

K. pneumo JMI 2697 = details: K. pneumo JMI 2697, IMP-4 (Cpase); substance alone
Protocol: as §1

K. pneumo JMI 2699 = details: K. pneumo JMI 2699, VIM-1, CTX-M3; substance alone
Protocol: as §1

P. aerug JMI 149 = details: P. aerug JMI 149, Bla+++D+; substance alone
Protocol: as §1

E. coli JMI 4103 = details: Escherichia coli, JMI4103; E. coli JMI 4103, KPC-2, Tem-1, CMY-Type; substance alone
E. coli JMI 4080 = details: Escherichia coli, JMI4080, E. coli JMI 4080, Tem-10; substance alone
E. coli JMI 2665 = details: Escherichia coli, JMI2665, read-out: MIC alone
K. pneumo JMI 4109 = details: K. pneumo JMI 4109, SHV-1, SHV-12; substance alone
K. pneumo JMI 2673 = details: K. pneumo JMI 2673, CTX-M14 (ESBL); substance alone
K. pneumo JMI 2674 = details: K. pneumo JMI 2674, CTX-M15 (ESBL); substance alone
K. pneumo JMI 4088 = details: K. pneumo JMI 4088, KPC-3 (Cpase); substance alone
K. pneumo JMI 4106 = details: K. pneumo JMI 4106, KPC-3, TEM-1, SHV-12, SHV-141; substance alone
K. pneumo JMI 2681 = details: K. pneumo JMI 2681, Oxa-48 (Cpase); substance alone
P. aerug JMI 2686 = details: P. aerug JMI 2686, KPC-2 (Cpase); substance alone
E. coli JMI 10768 = details: Escherichia coli, JMI10768; E. coli JMI 10768, CTX-M15 (Weak ESBL); substance alone
E. coli JMI 10770 = details: Escherichia coli, JMI10770; E. coli JMI 10770, CTX-M15 (Hyper ESBL); substance alone
E. coli JMI 11103 = details: Escherichia coli, JMI11103, E. coli JMI 11103, CTX-M15 (Intermediate ESBL); substance alone

| Compound | MIC (A. baumanii JMI 2659) [µg/mL] | MIC (E. cloacae JMI 36) [µg/mL] | MIC (E. coli ATCC 25922) [µg/mL] | MIC (E. coli JMI 10767) [µg/mL] | MIC (E. coli JMI 2671) [µg/mL] | MIC (E. coli JMI 2692) [µg/mL] | MIC (K. pneumo JMI 2693) [µg/mL] | MIC (K. pneumo JMI 2697) [µg/mL] | MIC (K. pneumo JMI 2699) [µg/mL] | MIC (P. aerug JMI 149) [µg/mL] | MIC (E. coli JMI 4103) [µg/mL] | MIC (E. coli JMI 4080) [µg/mL] | MIC (E. coli JMI 2665) [µg/mL] | MIC (K. pneumo JMI 4109) [µg/mL] | MIC (K. pneumo JMI 2673) [µg/mL] | MIC (K. pneumo JMI 2674) [µg/mL] | MIC (K. pneumo JMI 4088) [µg/mL] | MIC (K. pneumo JMI 4106) [µg/mL] | MIC (K. pneumo JMI 2681) [µg/mL] | MIC (P. aerug JMI 2686) [µg/mL] | further results |
| --- | --- | --- | --- | --- | --- | --- | --- | --- | --- | --- | --- | --- | --- | --- | --- | --- | --- | --- | --- | --- | --- |
| O=C(NNC(=O)[C@H]1CC[C@H]2CN1C(=O)N2OS(=O)(=O)O)C1CC1 (stereo in doubt) [Ex. 47, (2R,5S)-N′-(cyclopropylcarbonyl)-7-oxo-6-(sulfooxy)-1,6-diazabicyclo[3.2.1]octane-2-carbohydrazide] | > 16 | > 16 | > 16 | 8 | 8 | 8 | > 16 | > 16 | 16 | > 16 | 2 | 4 | 2 | 2 | > 16 | > 16 | > 16 | 16 | > 16 | > 16 | MIC (E. coli JMI 10768): 16 µg/mL; MIC (E. coli JMI 10770): 8 µg/mL; MIC (E. coli JMI 11103): 16 µg/mL |
| O=C(NNC(=O)[C@H]1CC[C@H]2CN1C(=O)N2OS(=O)(=O)O)C1CNC1 (stereo in doubt) [Ex. 67, (2R,5S)-N′-(azetidin-3-ylcarbonyl)-7-oxo-6-(sulfooxy)-1,6-diazabicyclo[3.2.1]octane-2-carbohydrazide] | > 16 | > 16 | > 16 | > 16 | > 16 | 8 | > 16 | 16 | > 16 | 16 | 16 | 16 | 8 | 4 | > 16 | > 16 | 16 | 8 | > 16 | 16 | MIC (E. coli JMI 10768): > 16 µg/mL; MIC (E. coli JMI 10770): > 16 µg/mL; MIC (E. coli JMI 11103): > 16 µg/mL |
